Legend:
Format in all cases: in vivo, 'Huangjinye' tea tree variety
tea tree sunburn [1] = assay: Anti-sunburn test of different concentrations of selenium: disease index, incidence and control effect after simulated sunburn; settings: for Incidence: foliar spray 4 days, simulated sunburn 4 h; for Disease index: foliar spray once a day for 4 days, simulated sunburn 34° C., 1600 μmol·m^−2·s^−1, 4 h; for Efficacy (control effect): calculated from disease index vs control group
Protocol: A method for preventing and/or alleviating tea tree sunburn included: • Experimental base: artificial climate chamber of Anhui Agricultural University; • Experimental subjects: ‘Huangjinye’ tea tree variety; • Experimental procedure:
2. Preparation of Na2SeO3 treatment solutions with different concentrations: 1.0, 2.0, 3.0, and 4.0 mg sodium selenite crystal powders were dissolved in 1 L of pure water (with final concentrations of 1.0, 2.0, 3.0, and 4.0 mg/L, respectively).
3. Seedling cultivation: the purchased tea seedlings were planted in a flower pot with a diameter of 20 cm, where nutrient soil, vermiculite, and perlite were at a volume ratio of 2:1:1; growth environment: temperature 28° C., humidity 80%, and light intensity 500 μmol·m^−2·s^−1.
(§1) 4. Anti-sunburn test of different concentrations of selenium: tea seedlings with roughly the same growth rate were sprayed with 0, 1.0, 2.0, 3.0, and 4.0 mg/L sodium selenite solution on the surface of their leaves at a distance of 3 cm to 5 cm from the leaves until liquid droplets were falling from the leaves, spray once a day for continuous 4 days; while a control group was sprayed with the same amount of water.
(§2) After an interval of 2 d after the end of the external treatment, the tea seedlings were placed in an artificial climate chamber (temperature: 34° C., humidity: 60%, light intensity: 1600 μmol·m^−2·s^−1) to allow simulated sunburn treatment for 4 h, and then observed, photographed, and statistics were made.
The number of leaves at each disease level was counted according to the degree of disease susceptibility, and the average incidence rate and disease index were calculated according to the formula to determine the severity of tea leaf diseases. Incidence rate=number of diseased leaves/total number of investigated leaves×100%, disease index=[Σ(number of leaves at each disease level×representative value of disease level)/(total number of investigated leaves×representative value of highest level)]×100; control effect (%)=[(control group condition index-treatment group condition index)/control group condition index]×100%.

tea tree sunburn [2] = assay: Fv/Fm value of tea trees treated with exogenous selenium under sunburn; settings: under sunburn conditions (water treatment group: 42.09%)
Protocol: as §1, §2
Influences of different concentrations of selenium on the apparent morphology of tea trees under sunburn: compared with the selenium treatment group, the water treatment group had the largest number of burned leaves and the largest lesion area. […] The decrease in Fv/Fm value of tea trees in the 4 selenium treatment groups was smaller than that in the water treatment group, where the Fv/Fm value of the treatment with a selenium concentration of 3.0 mg/L had the minimum decrease. Moreover, external spraying of sodium selenite could indeed alleviate the tea tree sunburn, and 3.0 mg/L Na2SeO3 solution had the best effect.

tea tree = assay: Malondialdehyde (MDA) content of tea tree leaves after spraying sodium selenite, with and without simulated sunburn; settings: 3 mg/L Na2SeO3 sprayed
Protocol: A method for preventing and/or alleviating tea tree sunburn included: • Experimental base: artificial climate chamber of Anhui Agricultural University; • Experimental subjects: ‘Huangjinye’ tea tree variety;
2. Preparation of Na2SeO3 treatment solution: 3.0 mg sodium selenite crystal powder was dissolved in 1 L of pure water (concentration: 3.0 mg/L).
3. Seedling growth environment: the purchased tea seedlings were planted in a flower pot with a diameter of 20 cm (nutrient soil, vermiculite, and perlite) were at a volume ratio of 2:1:1, and then placed in a glass greenhouse.
Normal growth environment: temperature 28° C., humidity 80%, and light intensity500 μmol·m^−2·s^−1.
Sunburn-simulated environment: temperature 34° C., humidity 60%, and light intensity 1,600 μmol·m^−2·s^−1.
4. […]
After sunburn treatment for 4 h, 0.5 g samples of the 3rd and 4th leaves of mature tea tree leaves were added in a mortar separately, added with 5 mL of 5% (v/v) trichloroacetic acid and ground. […] After rapid cooling and centrifugation at 4,000 r/min for 10 min, a supernatant was detected using a UV spectrophotometer at […], 600 nm, and 450 nm separately, and the data were recorded and analyzed. […]

[3] = selenium concentration 1.0 mg/L
[4] = selenium concentration 2.0 mg/L
[5] = selenium concentration 3.0 mg/L
[6] = selenium concentration 4.0 mg/L

O=[Se]([O-])[O-].[Na+].[Na+] [selenium, sodium selenite] was tested, and the “Number of sunburned leaves and area of diseased spots (apparent morphology)” value (tea tree sunburn [1]; concentration of 3.0 mg/L, among the four spraying concentrations, under sunburn) was “least amount and the smallest lesion area”, the “Reduction of incidence of sunburn compared with the group without selenium treatment” value (tea tree sunburn [1]; [3]) was 33.83% and the Incidence (tea tree sunburn [1]; [3]) was 12.11 ± 3.38b %. The Disease index (tea tree sunburn [1]; [3]) was 1.13 ± 0.26bc, the “Efficacy (control effect)” value (tea tree sunburn [1]; [3]) was 42.61% and the “Reduction of incidence of sunburn compared with the group without selenium treatment” value (tea tree sunburn [1]; [4]) was 29.62%. For the same molecule, the Incidence (tea tree sunburn [1]; [4]) was 12.88 ± 0.66ab %, the Disease index (tea tree sunburn [1]; [4]) was 1.13 ± 0.35bc and the “Efficacy (control effect)” value (tea tree sunburn [1]; [4]) was 42.61%. For the same molecule, the “Reduction of incidence of sunburn compared with the group without selenium treatment” value (tea tree sunburn [1]; [5]) was 78.14%, the Incidence (tea tree sunburn [1]; [5]) was 4.00 ± 0.00d % and the Disease index (tea tree sunburn [1]; [5]) was 0.22 ± 0.08 days. For the same molecule, the “Efficacy (control effect)” value (tea tree sunburn [1]; [5]) was 89.38%, the “Reduction of incidence of sunburn compared with the group without selenium treatment” value (tea tree sunburn [1]; [6]) was 9.84% and the Incidence (tea tree sunburn [1]; [6]) was 16.50 ± 3.80a %. The Disease index (tea tree sunburn [1]; [6]) was 1.62 ± 0.23ab, the “Efficacy (control effect)” value (tea tree sunburn [1]; [6]) was 17.58% and the “Decrease of Fv/Fm value compared with the control CK” value (from here on “Decrease of Fv/Fm value”) (tea tree sunburn [2]; [3]) was 30.29%. The “Decrease of Fv/Fm value” value (tea tree sunburn [2]; [4]) was 23.72%, the “Decrease of Fv/Fm value” value (tea tree sunburn [2]; [5]) was 17.86% and the “Decrease of Fv/Fm value” value (tea tree sunburn [2]; [6]) was 34.32%. The “Reduction of MDA content compared with the control” value (tea tree; non-sunburn growth conditions (Se vs CK)) was 22.14% and the “Decrease of MDA content compared with the water treatment group under sunburn” value (tea tree; simulated sunburn 4 h (SeH vs CKH)) was 19.89%.
